Measured values as given in PubChem BioAssay (NCI).
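How tested: cells in 96-well plates exposed to compound for 48 hours at five concentrations. Here, GI50 denotes the concentration required for 50% inhibition of growth. TGI denotes the concentration required for complete inhibition of growth.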

Key:
Assay in all cases: DTP human tumour cell line panel, 48 h
EKVX NSCLC = tested on: EKVX NSCLC
TK-10 renal = tested on: TK-10 renal
OVCAR-5 ovarian = tested on: OVCAR-5 ovarian
NCI-H23 lung = tested on: NCI-H23 lung
OVCAR-3 ovarian = tested on: OVCAR-3 ovarian
SK-MEL-28 melanoma = tested on: SK-MEL-28 melanoma
IGROV1 ovarian = tested on: IGROV1 ovarian
A498 renal = tested on: A498 renal
OVCAR-4 ovarian = tested on: OVCAR-4 ovarian
MALME-3M melanoma = tested on: MALME-3M melanoma
NCI-H522 lung = tested on: NCI-H522 lung
SW-620 colon = tested on: SW-620 colon
PC-3 prostate = tested on: PC-3 prostate
NCI-H226 lung = tested on: NCI-H226 lung
SF-539 CNS = tested on: SF-539 CNS
SN12C renal = tested on: SN12C renal
SF-295 CNS = tested on: SF-295 CNS
HCT-15 colon = tested on: HCT-15 colon
SNB-75 CNS = tested on: SNB-75 CNS
RXF 393 renal = tested on: RXF 393 renal
A549 NSCLC = tested on: A549 NSCLC
SK-MEL-5 melanoma = tested on: SK-MEL-5 melanoma
UACC-257 melanoma = tested on: UACC-257 melanoma
U251 CNS = tested on: U251 CNS
DU-145 prostate = tested on: DU-145 prostate
SK-OV-3 ovarian = tested on: SK-OV-3 ovarian
RPMI-8226 leukemia = tested on: RPMI-8226 leukemia
HOP-92 NSCLC = tested on: HOP-92 NSCLC
SK-MEL-2 melanoma = tested on: SK-MEL-2 melanoma
NCI-H460 lung = tested on: NCI-H460 lung
786-0 renal = tested on: 786-0 renal
HCC-2998 colon = tested on: HCC-2998 colon
CCRF-CEM leukemia = tested on: CCRF-CEM leukemia
LOX IMVI melanoma = tested on: LOX IMVI melanoma
SF-268 CNS = tested on: SF-268 CNS
MOLT-4 leukemia = tested on: MOLT-4 leukemia
HS 578T breast = tested on: HS 578T breast
ACHN renal = tested on: ACHN renal
OVCAR-8 ovarian = tested on: OVCAR-8 ovarian
HL-60(TB) leukemia = tested on: HL-60(TB) leukemia
K-562 leukemia = tested on: K-562 leukemia
HOP-62 NSCLC = tested on: HOP-62 NSCLC
BT-549 breast = tested on: BT-549 breast
UACC-62 melanoma = tested on: UACC-62 melanoma
KM12 colon = tested on: KM12 colon
M14 melanoma = tested on: M14 melanoma
CAKI-1 renal = tested on: CAKI-1 renal
MCF7 breast = tested on: MCF7 breast
MDA-MB-468 breast = tested on: MDA-MB-468 breast
MDA-MB-435 = tested on: MDA-MB-435
COLO 205 colon = tested on: COLO 205 colon
HCT-116 colon = tested on: HCT-116 colon
HT29 colon = tested on: HT29 colon

C=C1CC[C@@H]2[C@]3(C)COC(c4cn[nH]c4-c4cccc(Cl)c4)O[C@@H]3CC[C@@]2(C)[C@@H]1C/C=C1/C(=O)OCC1O (stereo partly specified)
GI50 (EKVX NSCLC): 3.68 µM | TGI (EKVX NSCLC): 13.9 µM | GI50 (TK-10 renal): 12.4 µM | TGI (TK-10 renal): 25.7 µM | GI50 (OVCAR-5 ovarian): 3.63 µM | TGI (OVCAR-5 ovarian): 14 µM | GI50 (NCI-H23 lung): 4.36 µM | TGI (NCI-H23 lung): 15.9 µM | GI50 (OVCAR-3 ovarian): 1.93 µM | TGI (OVCAR-3 ovarian): 3.77 µM | GI50 (SK-MEL-28 melanoma): 1.98 µM | TGI (SK-MEL-28 melanoma): 4.05 µM | GI50 (IGROV1 ovarian): 4.14 µM | TGI (IGROV1 ovarian): 15.8 µM | GI50 (A498 renal): 18.5 µM | TGI (A498 renal): 32.6 µM | GI50 (OVCAR-4 ovarian): 4.4 µM | TGI (OVCAR-4 ovarian): 45.7 µM | GI50 (MALME-3M melanoma): 1.84 µM | TGI (MALME-3M melanoma): 4.26 µM | GI50 (NCI-H522 lung): 1.75 µM | TGI (NCI-H522 lung): 3.59 µM | GI50 (SW-620 colon): 2.35 µM | TGI (SW-620 colon): 5.96 µM | GI50 (PC-3 prostate): 4.08 µM | TGI (PC-3 prostate): 30.7 µM | GI50 (NCI-H226 lung): 1.66 µM | TGI (NCI-H226 lung): 3.21 µM | GI50 (SF-539 CNS): 1.77 µM | TGI (SF-539 CNS): 3.36 µM | GI50 (SN12C renal): 2.94 µM | TGI (SN12C renal): 10.5 µM | GI50 (SF-295 CNS): 4.27 µM | TGI (SF-295 CNS): 16.1 µM | GI50 (HCT-15 colon): 1.79 µM | TGI (HCT-15 colon): 3.81 µM | GI50 (SNB-75 CNS): 2.41 µM | TGI (SNB-75 CNS): 12.3 µM | GI50 (RXF 393 renal): 1.73 µM | TGI (RXF 393 renal): 3.24 µM | GI50 (A549 NSCLC): 9.73 µM | TGI (A549 NSCLC): 30.4 µM | GI50 (SK-MEL-5 melanoma): 2.27 µM | TGI (SK-MEL-5 melanoma): 5.37 µM | GI50 (UACC-257 melanoma): 11.2 µM | TGI (UACC-257 melanoma): 27 µM | GI50 (U251 CNS): 2.15 µM | TGI (U251 CNS): 5.29 µM | GI50 (DU-145 prostate): 5.01 µM | TGI (DU-145 prostate): 19.5 µM | GI50 (SK-OV-3 ovarian): 16 µM | TGI (SK-OV-3 ovarian): 35.1 µM | GI50 (RPMI-8226 leukemia): 2.25 µM | TGI (RPMI-8226 leukemia): 7.02 µM | GI50 (HOP-92 NSCLC): 4.29 µM | TGI (HOP-92 NSCLC): 22.3 µM | GI50 (SK-MEL-2 melanoma): 2.71 µM | TGI (SK-MEL-2 melanoma): 8.53 µM | GI50 (NCI-H460 lung): 8.87 µM | TGI (NCI-H460 lung): 25.6 µM | GI50 (786-0 renal): 3.36 µM | TGI (786-0 renal): 11.7 µM | GI50 (HCC-2998 colon): 3.49 µM | TGI (HCC-2998 colon): 11.5 µM | GI50 (CCRF-CEM leukemia): 2.7 µM | TGI (CCRF-CEM leukemia): 11.4 µM | GI50 (LOX IMVI melanoma): 1.44 µM | TGI (LOX IMVI melanoma): 2.83 µM | GI50 (SF-268 CNS): 17.3 µM | TGI (SF-268 CNS): 41.4 µM | GI50 (MOLT-4 leukemia): 3.83 µM | TGI (MOLT-4 leukemia): 18.2 µM | GI50 (HS 578T breast): 9.04 µM | TGI (HS 578T breast): 62.7 µM | GI50 (ACHN renal): 2.47 µM | TGI (ACHN renal): 6.95 µM | GI50 (OVCAR-8 ovarian): 2.39 µM | TGI (OVCAR-8 ovarian): 7.7 µM | GI50 (HL-60(TB) leukemia): 2.91 µM | TGI (HL-60(TB) leukemia): 16.3 µM | GI50 (K-562 leukemia): 2.41 µM | TGI (K-562 leukemia): 10.5 µM | GI50 (HOP-62 NSCLC): 15.3 µM | TGI (HOP-62 NSCLC): 32 µM | GI50 (BT-549 breast): 2.36 µM | TGI (BT-549 breast): 6.03 µM | GI50 (UACC-62 melanoma): 1.69 µM | TGI (UACC-62 melanoma): 3.62 µM | GI50 (KM12 colon): 3.29 µM | TGI (KM12 colon): 13.1 µM | GI50 (M14 melanoma): 2.19 µM | TGI (M14 melanoma): 5.88 µM | GI50 (CAKI-1 renal): 4 µM | TGI (CAKI-1 renal): 14.6 µM | GI50 (MCF7 breast): 2.06 µM | TGI (MCF7 breast): 9.16 µM | GI50 (MDA-MB-468 breast): 1.88 µM | TGI (MDA-MB-468 breast): 4.97 µM | GI50 (MDA-MB-435): 2.47 µM | TGI (MDA-MB-435): 7.62 µM | GI50 (COLO 205 colon): 4.85 µM | TGI (COLO 205 colon): 19.5 µM | GI50 (HCT-116 colon): 1.84 µM | TGI (HCT-116 colon): 3.93 µM | GI50 (HT29 colon): 2.7 µM | TGI (HT29 colon): 6.8 µM
